According to patent US8071768B2, “Alkylquinoline and alkylquinazoline kinase modulators” (Janssen Pharmaceutica, N.V., priority 2005, dated 2011):
Counter-ions that a name gives are not always drawn.

How the values were obtained:
FLT3 = FLT3 phosphorylation in MV4-11 tumors from treated mice (immunoblot); type: in vivo, nude mice; conditions: single dose 100 mg/kg po, tumors harvested 2 hours later
Experimental: To establish further that compounds of the present invention reached the expected target in tumor tissue, the level of FLT3 phosphorylation in tumor tissue obtained from vehicle- and compound-treated mice was measured. Results for Compound 73 and Compound 74 are shown in FIG. 3 and FIG. 4, respectively. For this pharmacodynamic study, a sub-set of 10 mice from the vehicle-treated control group were randomized into two groups of 5 mice each and then treated with another dose of vehicle or compound (100 mg/kg, po). Tumors were harvested 2 hours later and snap frozen for assessment of FLT3 phosphorylation by immunobloting.
Harvested tumors were processed for immunoblot analysis of FLT3 phosphorylation in the following manner: 100 mg of tumor tissue was dounce homogenized in lysis buffer (50 mM Hepes, 150 mM NaCl, 10% Glycerol, 1% Triton-X-100, 10 mM NaF, 1 mM EDTA, 1.5 mM MgCl2, 10 mM NaPyrophosphate) supplemented with phosphatase (Sigma Cat#P2850) and protease inhibitors (Sigma Cat #P8340). Insoluble debris was removed by centrifugation at 1000×g for 5 minutes at 4° C. Cleared lysates ([…] of total potein at 10 mg/ml in lysis buffer) were incubated with 10 μg of agarose conjugated anti-FLT3 antibody, clone C-20 (Santa Cruz cat # sc-479ac), for 2 hours at 4° C. with gentle agitation. […]

TrkB = target: T1, TrkB (Homo sapiens, UniProt Q16620); assay: Trk B Fluorescence Polarization Kinase Assay; type: biochemical; conditions: uncertainty ±10%
T1 construct: purchased Upstate 14-507M
Procedure, shortened: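 The TrkB kinase reaction (50 nM enzyme, 20 ug/mL poly Glu4Tyr, 150 uM ATP, 5 mM MgCl2, 1% DMSO) ran 30 minutes at room temperature and was stopped with EDTA. Phosphorylation was detected by fluorescence-polarization displacement of a fluorescein phosphopeptide from an anti-phosphotyrosine antibody. IC50 came from a variable-slope sigmoidal fit of triplicates.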

[1] = Tolerability in the MV4-11 xenograft study (body weight, overt clinical signs); type: in vivo, nude mice; conditions: 11-day treatment, doses up to 200 mg/kg/day
Experimental: (§1) Female athymic nude mice weighing no less than 20-21 grams were inoculated subcutaneously in the left inguinal region of the thigh with 5×10^6 tumor cells in a delivery volume of 0.2 mL. For regression studies, the tumors were allowed to grow to a pre-determined size prior to initiation of dosing.

[2] = target: T2, isolated kinase domain of the human c-kit receptor (Homo sapiens, UniProt P10721); assay: c-Kit Fluorescence Polarization Kinase Assay; type: biochemical; conditions: uncertainty ±10%; read-out: ckit IC50
T2 construct: isolated kinase domain of the human c-kit receptor; purchased ProQinase lot SP005
Experimental: c-Kit Fluorescence Polarization Kinase Assay
The compounds of the present invention are also specific inhibitors of c-Kit. Selection of preferred compounds of Formula I for use as c-Kit inhibitors was performed in the following manner using an in vitro kinase assay to measure inhibition of the isolated kinase domain of the human c-kit receptor in a fluorescence polarization (FP) protocol. The c-kit assay utilized the fluorescein-labeled phosphopeptide and the anti-phosphotyrosine antibody included in the Panvera Phospho-Tyrosine Kinase Kit (Green) supplied by Invitrogen. When c-kit phosphorylated the poly Glu4Tyr, the fluorescein-labeled phosphopeptide was displaced from the anti-phosphotyrosine antibody by the phosphorylated poly Glu4Tyr, thus decreasing the FP value. The c-kit kinase reaction was incubated at room temperature for 45 minutes under the following conditions: 1 nM c-kit (ProQinase, lot SP005), 100 ug/mL poly Glu4Tyr, 50 uM ATP, 5 mM MgCl2, 1 mM DTT, 0.01% Tween-20, 1% DMSO or compound in […], pH 7.5. The kinase reaction was stopped with the addition of EDTA. The fluorescein-labeled phosphopeptide and the anti-phosphotyrosine antibody were added and incubated for 30 minutes at room temperature and fluorescence polarization was read. Data points were an average of triplicate samples. Inhibition and IC50 data analysis were done with GraphPad Prism using a non-linear regression fit with a multiparamater, sigmoidal dose-response (variable slope) equation.

MV4-11 tumor xenografts = assay: nude mouse MV4-11 human tumor xenograft regression model; type: in vivo, nude mice; conditions: for decrease of mean tumor volume compared to vehicle-treated group: Day 11; for reduction of final tumor weight compared to vehicle-treated group: eleven days oral dosing
Experimental: Female athymic nude mice (CD-1, nu/nu, 9-10 weeks old) were obtained from Charles River Laboratories (Wilmington, Mass.) and were maintained according to NIH standards. All mice were group housed (5 mice/cage) under clean-room conditions in sterile micro-isolator cages on a 12-hour light/dark cycle in a room maintained at 21-22° C. and 40-50% humidity. Mice were fed irradiated standard rodent diet and water ad libitum. All animals were housed in a Laboratory Animal Medicine facility that is fully accredited by the American Association for Assessment and Accreditation of Laboratory Animal Care (AAALAC). All procedures involving animals were conducted in compliance with the NIH Guide for the Care and Use of Laboratory Animals and all protocols were approved by an Internal Animal Care and Use Committee (IACUC).
The human leukemic MV4-11 cell line was obtained from the American Type Culture Collection (ATCC Number: CRL-9591) and propagated in RPMI medium containing 10% FBS (fetal bovine serum) and 5 ng/mL GM-CSF (R&D Systems). MV4-11 cells are derived from a patient with childhood acute myelomonocytic leukemia with an 11q23 translocation resulting in a MLL gene rearrangement and containing an FLT3-ITD mutation (AML subtype M4)(1,2). MV4-11 cells express constitutively active phosphorylated FLT3 receptor as a result of a naturally occurring FLT3/ITD mutation. Strong anti-tumor activity against MV4-11 tumor growth in the nude mouse tumor xenograft model is anticipated to be a desirable quality of the invention.
as §1
(See FIG. 2). […] Percent Inhibition was calculated versus the mean tumor weight in the vehicle-treated control group.

T2 sequence (P10721 589-937 limits assumed): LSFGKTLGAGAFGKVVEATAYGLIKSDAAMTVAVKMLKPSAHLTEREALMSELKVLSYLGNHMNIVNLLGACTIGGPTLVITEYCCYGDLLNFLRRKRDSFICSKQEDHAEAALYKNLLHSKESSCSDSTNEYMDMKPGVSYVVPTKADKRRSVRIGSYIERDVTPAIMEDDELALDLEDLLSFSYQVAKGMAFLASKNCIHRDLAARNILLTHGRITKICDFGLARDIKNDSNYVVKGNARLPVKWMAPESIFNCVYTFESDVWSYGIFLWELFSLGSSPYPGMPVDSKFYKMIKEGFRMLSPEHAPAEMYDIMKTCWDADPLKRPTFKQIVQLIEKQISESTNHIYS
T1 sequence (Q16620 32-822): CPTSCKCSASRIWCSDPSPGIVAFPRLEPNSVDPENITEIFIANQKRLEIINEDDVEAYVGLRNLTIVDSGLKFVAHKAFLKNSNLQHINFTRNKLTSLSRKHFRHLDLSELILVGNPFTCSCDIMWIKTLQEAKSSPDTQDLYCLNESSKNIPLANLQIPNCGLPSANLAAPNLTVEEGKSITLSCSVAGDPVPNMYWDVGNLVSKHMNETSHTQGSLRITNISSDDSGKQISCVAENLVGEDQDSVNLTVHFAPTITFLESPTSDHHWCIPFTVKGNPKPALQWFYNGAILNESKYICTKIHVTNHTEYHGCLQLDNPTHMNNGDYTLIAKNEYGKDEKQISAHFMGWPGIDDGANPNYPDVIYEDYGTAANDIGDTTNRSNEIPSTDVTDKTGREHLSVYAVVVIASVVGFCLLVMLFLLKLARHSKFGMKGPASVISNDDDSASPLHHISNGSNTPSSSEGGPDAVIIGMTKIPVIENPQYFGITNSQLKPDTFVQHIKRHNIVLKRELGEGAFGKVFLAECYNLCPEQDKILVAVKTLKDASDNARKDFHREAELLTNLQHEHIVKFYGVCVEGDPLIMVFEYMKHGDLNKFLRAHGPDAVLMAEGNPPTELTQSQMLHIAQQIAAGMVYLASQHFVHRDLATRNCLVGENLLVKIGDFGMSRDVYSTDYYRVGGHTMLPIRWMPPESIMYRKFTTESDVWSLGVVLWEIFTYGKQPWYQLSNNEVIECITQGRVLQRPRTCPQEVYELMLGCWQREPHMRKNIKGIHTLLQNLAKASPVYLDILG

SMILES	level of FLT3 phosphorylation in MV4-11 tumors compared to vehicle-treated mice (FLT3)	IC50 (TrkB)	adverse effects on body weight [1]	overt toxicity [1]	IC50 [2]	further results
CN1CCN(CCCOc2ccc3c(C4CCN(C(=O)Nc5ccc(N6CCOCC6)cc5)CC4)ncnc3c2)CC1 [Compound 73, 4-{7-[3-(4-Methyl-piperazin-1-yl)-propoxy]-quinazolin-4-yl}-piperidine-1-carboxylic acid (4-morpholin-4-yl-phenyl)-amide]	biologically significant reduction	> 20000 nM	no significant adverse effects on body weight	No overt toxicity	40 nM	final tumors in some mice (MV4-11 tumor xenografts; high dose): regressed to non-palpable, non-detectable tumors
O=C1CCCN1CCOc1ccc2c(C3CCN(C(=O)Nc4ccc(N5CCCC5)cc4)CC3)ncnc2c1 [Compound 74, 4-{7-[2-(2-Oxo-pyrrolidin-1-yl)-ethoxy]-quinazolin-4-yl}-piperidine-1-carboxylic acid (4-pyrrolidin-1-yl-phenyl)-amide]	biologically significant reduction	3300 nM	no significant adverse effects on body weight	No overt toxicity	13 nM	decrease of mean tumor volume compared to vehicle-treated group (MV4-11 tumor xenografts; 10 mg/kg b.i.d. oral): 22%; reduction of final tumor weight compared to vehicle-treated group (MV4-11 tumor xenografts; 10 mg/kg): 12%; decrease of mean tumor volume compared to vehicle-treated group (MV4-11 tumor xenografts; 30 mg/kg b.i.d. oral): 54%; reduction of final tumor weight compared to vehicle-treated group (MV4-11 tumor xenografts; 30 mg/kg): 43%; tumor regression: decrease versus starting mean tumor volume on Day 1 (MV4-11 tumor xenografts; 100 mg/kg b.i.d. oral): 79%; decrease of mean tumor volume compared to vehicle-treated group (MV4-11 tumor xenografts; 100 mg/kg b.i.d. oral): 96%; reduction of final tumor weight compared to vehicle-treated group (MV4-11 tumor xenografts; 100 mg/kg): 91%
COc1cc2ncnc(C3CCN(C(=O)Nc4ccc(OC(C)C)cc4)CC3)c2cc1OC [Compound 1, 4-(6,7-Dimethoxy-quinazolin-4-yl)-piperidine-1-carboxylic acid (4-isopropoxy-phenyl)-amide hydrochloride]		220 nM			82.5 nM	
O=C1CCCN1CCCOc1ccc2c(C3CCN(C(=O)Nc4ccc(N5CCOCC5)cc4)CC3)ncnc2c1 [Compound 68, 4-{7-[3-(2-Oxo-pyrrolidin-1-yl)-propoxy]-quinazolin-4-yl}-piperidine-1-carboxylic acid (4-morpholin-4-yl-phenyl)-amide]		> 20000 nM			28 nM	
CN1CCN(CCCOc2ccc3c(C4CCN(C(=O)Nc5ccc(N6CCOCC6)nc5)CC4)ncnc3c2)CC1 [Compound 80, 4-{7-[3-(4-Methyl-piperazin-1-yl)-propoxy]-quinazolin-4-yl}-piperidine-1-carboxylic acid (6-morpholin-4-yl-pyridin-3-yl)-amide]		9100 nM			160 nM	
COc1cc2ncnc(C3CCN(C(=O)Nc4ccc(OC5CCC5)nc4)CC3)c2cc1OC [Compound 17, 4-(6,7-Dimethoxy-quinazolin-4-yl)-piperidine-1-carboxylic acid (6-cyclobutoxy-pyridin-3-yl)-amide]		500 nM			77.5 nM	
